The term MIC denotes the lowest concentration that inhibits growth of the organism. As a reminder, the LD50 is the dose expected to kill half of the subjects tested.

Here are results for eight molecules from patent US5373000A, “7Beta-(thiadiazolyl)-2-iminoacetamido-3cephem compounds” (Eisai Co., Ltd., priority 1985, dated 1994).

Converted amounts (≈) assume the structure as drawn. Where two headings read alike, the source gives them in different places. Bounds are passed on as bounds.

Data set [1] deals with Staph. aureus 209-P. Description: Antibacterial activities, MIC. The format is cell-based.
The subject of data set [2] is Escher. coli NIHJ. Description: Antibacterial activities, MIC. The format is cell-based.
Data set [3] concerns Kleb Pneumoniae EK-6. Description: Antibacterial activities, MIC. The format is cell-based.
For data set [4], the system named is Ser. marcescens ES-75. Kind of data set: Antibacterial activities, MIC. The format is cell-based.
Data set [5] deals with Morg. morganii EP-14. Kind of data set: Antibacterial activities, MIC. The format is cell-based.
For data set [6], the system named is Pseud. aeruginosa EP-01. Description: Antibacterial activities, MIC. The format is cell-based.
The nature of data set [7]: in vivo. The following applies: mouse, iv.
[8] abbreviates: Staphylococcus aureus, read-out: MIC.
The mark [9] stands for this setting: Escherichia coli, read-out: MIC.
Where [10] appears, read: Serratia marcescens, ES75, read-out: MIC.
The mark [11] stands for this setting: Morganella morganii, EP14, Morg. morganii EP-14, read-out: MIC.
Where [12] appears, read: Pseudomonas aeruginosa, EP01, Pseud. aeruginosa EP-01, read-out: MIC.

On to `CO/N=C(\C(=O)N[C@@H]1C(=O)N2C(C(=O)[O-])=C(/C=C/C[N+](C)(C)CC(N)=O)CS[C@H]12)c1nsc(N)n1` [Example 1, 7β-[2-(5-Amino-1,2,4-thiadiazol-3-yl)-(Z)-2-methoxyiminoacetamido]-3-[(E)-3-(carbamoylmethyldimethylammonio)-1-propen-1-yl)-3-cephem-4-carboxylate], for which the MIC in data set [1] (setting [8]) came to 0.4 µg/mL (≈ 0.763 µM); in data set [2] (setting [9]) it was 0.05 µg/mL (≈ 0.0953 µM); in data set [3] (read-out: MIC) it was 0.05 µg/mL (≈ 0.0953 µM); in data set [4] (setting [10]), 0.1 µg/mL (≈ 0.191 µM); in data set [5] (setting [11]), 0.05 µg/mL (≈ 0.0953 µM); in data set [6] (setting [12]) it was 0.8 µg/mL (≈ 1.53 µM). The molecule also had a median lethal dose (LD50) in data set [7] of no less than 3000 mg/kg.
With `CO/N=C(\C(=O)N[C@@H]1C(=O)N2C(C(=O)[O-])=C(/C=C/C[N+](C)(C)Cc3nnco3)CS[C@H]12)c1nsc(N)n1` [Example 20, 7β-[2-(5-Amino-1,2,4-thiadiazol-3-yl)-(Z)-2-methoxyiminoacetamido]-3-[(E)-3-[(1,3,4-oxadiazol-2-yl)methyldimethylammonio]-1-propen-1-yl]-3-cephem-4-carboxylate], the MIC was 0.4 µg/mL (≈ 0.728 µM) in data set [1] (setting [8]); no more than 0.025 µg/mL in data set [2] (setting [9]); no more than 0.025 µg/mL in data set [3] (read-out: MIC); 0.1 µg/mL (≈ 0.182 µM) in data set [4] (setting [10]); 0.05 µg/mL (≈ 0.091 µM) in data set [5] (setting [11]); 0.8 µg/mL (≈ 1.46 µM) in data set [6] (setting [12]). Moreover, the LD50 in data set [7] is no less than 3000 mg/kg.
On to `CO/N=C(\C(=O)N[C@@H]1C(=O)N2C(C(=O)[O-])=C(/C=C/C[N+]3(C)CCN(C)CC3)CS[C@H]12)c1nsc(N)n1` [Example 33, 7β-[2-(5-Amino-1,2,4-thiadiazol-3-yl)-(Z)-2-methoxyiminoacetamido]-3-[(E)-3-(1,4-dimethyl-1-piperazinio)-1-propen-1-yl]-3-cephem-4-carboxylate], for which the MIC is 0.2 µg/mL (≈ 0.373 µM) in data set [1] (setting [8]); no more than 0.025 µg/mL in data set [2] (setting [9]); no more than 0.025 µg/mL in data set [3] (read-out: MIC); 0.05 µg/mL (≈ 0.0932 µM) in data set [4] (setting [10]); no more than 0.025 µg/mL in data set [5] (setting [11]); 1.56 µg/mL (≈ 2.91 µM) in data set [6] (setting [12]). This molecule also showed an LD50 in data set [7] of no less than 3000 mg/kg.
Consider `CO/N=C(\C(=O)N[C@@H]1C(=O)N2C(C(=O)[O-])=C(/C=C/C[N+](C)(C)[C@H](CO)C(N)=O)CS[C@H]12)c1nsc(N)n1` [Example 39, 7β-[2-(5-Amino-1,2,4-thiadiazol-3-yl)-(Z)-2-methoxyiminoacetamide]-3-[(E)-3-[(1R-carbamoyl-2-hydroxyethyl)dimethylammonio]-1-propenyl]-3-cephem-4-carboxylate], for which the MIC is 0.4 µg/mL (≈ 0.721 µM) in data set [1] (setting [8]); 0.05 µg/mL (≈ 0.0902 µM) in data set [2] (setting [9]); no more than 0.025 µg/mL in data set [3] (read-out: MIC); 0.1 µg/mL (≈ 0.18 µM) in data set [4] (setting [10]); 0.05 µg/mL (≈ 0.0902 µM) in data set [5] (setting [11]); 0.8 µg/mL (≈ 1.44 µM) in data set [6] (setting [12]). In data set [7], this molecule had an LD50 of no less than 3000 mg/kg.
With `CC[N+](C)(C/C=C/C1=C(C(=O)[O-])N2C(=O)[C@@H](NC(=O)/C(=N\OC)c3nsc(N)n3)[C@H]2SC1)CC(N)=O` (stereo partly drawn) [Example 40], the MIC in data set [1] (setting [8]) is 0.2 µg/mL (≈ 0.371 µM); in data set [2] (setting [9]), no more than 0.025 µg/mL; in data set [3] (read-out: MIC), no more than 0.025 µg/mL; in data set [4] (setting [10]) it was 0.05 µg/mL (≈ 0.0928 µM); in data set [5] (setting [11]), no more than 0.025 µg/mL; in data set [6] (setting [12]), 0.8 µg/mL (≈ 1.49 µM). This molecule displayed an LD50 in data set [7] of no less than 3000 mg/kg.
Regarding `CO/N=C(\C(=O)N[C@@H]1C(=O)N2C(C(=O)[O-])=C(/C=C/C[N+]34CCOC(C)(C3)OCC4)CS[C@H]12)c1nsc(N)n1` [Example 41, 7β-[2-(5-Amino-1,2,4-thiadiazol-3-yl)-(Z)-2-methoxyiminoacetamide]-3-[(E)-3-(5-aza-1-methyl-2,8-diozabicyclo[3,3,1]nonan-5-io)-1-propenyl]-3-cephem-4-carboxylate], the MIC in data set [1] (setting [8]) worked out at 0.4 µg/mL (≈ 0.707 µM); in data set [2] (setting [9]) it was 0.05 µg/mL (≈ 0.0884 µM); in data set [3] (read-out: MIC), 0.05 µg/mL (≈ 0.0884 µM); in data set [4] (setting [10]), 0.1 µg/mL (≈ 0.177 µM); in data set [5] (setting [11]), 0.05 µg/mL (≈ 0.0884 µM); in data set [6] (setting [12]), 1.56 µg/mL (≈ 2.76 µM). The molecule also registered an LD50 in data set [7] of no less than 3000 mg/kg.
As to `CO/N=C(\C(=O)N[C@@H]1C(=O)N2C(C(=O)[O-])=C(/C=C/C[N+]3(CCO)CCC(C(N)=O)CC3)CS[C@H]12)c1nsc(N)n1` (stereo partly drawn) [Example 44-2], the MIC in data set [1] is 0.4 µg/mL (≈ 0.673 µM); in data set [2], no more than 0.025 µg/mL; in data set [3], no more than 0.025 µg/mL; in data set [4], 0.05 µg/mL (≈ 0.0841 µM); in data set [5] (Morg. morganii EP-14), no more than 0.025 µg/mL; in data set [6] (Pseud. aeruginosa EP-01), 0.8 µg/mL (≈ 1.35 µM).
Consider `CO/N=C(\C(=O)N[C@@H]1C(=O)N2C(C(=O)[O-])=C(/C=C/C[N+]3(CC(N)=O)CC[C@@H](O)C3)CS[C@H]12)c1nsc(N)n1` (stereo partly drawn) [Example 45-1], for which the MIC in data set [1] (setting [8]) is 0.4 µg/mL (≈ 0.706 µM); in data set [2] (setting [9]), no more than 0.025 µg/mL; in data set [3] (read-out: MIC) it was no more than 0.025 µg/mL; in data set [4] (setting [10]), 0.05 µg/mL (≈ 0.0882 µM); in data set [5] (setting [11]) it was no more than 0.025 µg/mL; in data set [6] (setting [12]) it was 0.8 µg/mL (≈ 1.41 µM).
